{"source": "patent US5637690A", "about": "“Sulfate of n-acetylneuraminic acid homopolymer and processes for making and using the same” (Marukin Shoyu Co., Ltd., priority 1993, dated 1997)", "key": {"HIV": {"test_system": "HIV", "test": "Anti-HIV activity: HIV antigen positive MT-4 cells by immunofluorescence (Pharmacological Tests 1 and 3)", "assay_type": "cell-based", "method": "(§1) A medium in which MT-4 cell [Miyoshi I. et al., Gann Monogr., 28, 219-228 (1982)] was included in a proportion of 2×10^5 cell/ml medium (RPMI-1640+10%FCS) was prepared. To each of 500 μl portion of the medium were added sulfated colominic acid obtained from examples 1 and 2 at a concentration shown in table 1. After two hours addition of the esters, HIV was infected to cells in each well in the proportion of 5×10^3 PFU/well. After 4 days from HIV infection, smear of MT-4 cell was prepared to detect HIV antigen positive cells by immunofluorescence (Harada S. et al., Science, 229, 563-566 (1985); Takeuchi Y., et al., Jpn. J. Cancer Res. (Gann), 78, 11-15 (1987)).\nAn anti-HIV activity of colominic acid which is a starting material in place of sulfated colominic acid was determined in the same manner as above.\n(§2) In tables 1 and 3, a sample having a concentration of sulfated colominic acid of zero was regarded as control. In table 2, \"--\" indicates no toxicity.\n(§3) In order to determine the minimum number of monomer unit of N-acetylneuraminic acid homopolymer, sulfate esters of formula (I) in which n is 1-6 were produced. A cytotoxicity and an anti-HIV activity of each sulfate ester were determined in the same manner as pharmacological tests 1 and 2."}, "MT-4 cell": {"test_system": "MT-4 cell", "test": "Cytotoxicity on MT-4 cells (Pharmacological Tests 1, 2 and 3)", "assay_type": "cell-based", "set-up": "key to Toxicity: --: no cytotoxicity or no anti-HIV activity; key to Cytotoxicity: --: no toxicity", "conditions": "for Cytotoxicity: Table 2; for Toxicity: Table 4", "method": "as §1, §2\nA cytotoxicity of sulfated colominic acid was assayed in the same manner as Pharmacological Test 1. Specifically, after MT-4 cell prepared at a concentration of 1×10^5 cell/ml was cultured for 4 days in the presence of a variety of concentrations of sulfated colominic acid, the number of cells was counted. Cytotoxicity was evaluated by calculating a cell survival ratio in each final concentration of sulfated colominic acid taking as 100% the cell survival ratio of control, in which final concentration of sulfated colominic acid is zero.\nas §3"}}}
{"substance": "colominic acid [reference compound]", "values": [{"measurement": "anti-HIV activity (in words)", "setting": "HIV; Table 2, 1-100 μg/ml", "result": "does not have an anti-HIV activity"}, {"measurement": "Cell infection ratio", "setting": "HIV; Table 2, final concentration 1 μg/ml", "result": "> 95", "unit": "%"}, {"measurement": "Cell infection ratio", "setting": "HIV; Table 2, final concentration 3 μg/ml", "result": "> 95", "unit": "%"}, {"measurement": "Cell infection ratio", "setting": "HIV; Table 2, final concentration 10 μg/ml", "result": "> 95", "unit": "%"}, {"measurement": "Cell infection ratio", "setting": "HIV; Table 2, final concentration 30 μg/ml", "result": "> 95", "unit": "%"}, {"measurement": "Cell infection ratio", "setting": "HIV; Table 2, final concentration 100 μg/ml", "result": "> 95", "unit": "%"}, {"measurement": "Cytotoxicity", "setting": "MT-4 cell; final concentration 1 μg/ml", "result": "--"}, {"measurement": "Cytotoxicity", "setting": "MT-4 cell; final concentration 3 μg/ml", "result": "--"}, {"measurement": "Cytotoxicity", "setting": "MT-4 cell; final concentration 10 μg/ml", "result": "--"}, {"measurement": "Cytotoxicity", "setting": "MT-4 cell; final concentration 30 μg/ml", "result": "--"}, {"measurement": "Cytotoxicity", "setting": "MT-4 cell; final concentration 100 μg/ml", "result": "--"}]}
{"substance": "sulfate ester of N-acetylneuraminic acid hexamer [DP-6-S]", "values": [{"measurement": "IC50", "setting": "HIV; Table 4, anti-HIV, MT-4 cells", "result": 20, "unit": "µg/mL"}, {"measurement": "Cell infection ratio", "setting": "HIV; Table 4, final concentration 0.1 μg/ml", "result": "> 95", "unit": "%"}, {"measurement": "Cell infection ratio", "setting": "HIV; Table 4, final concentration 0.3 μg/ml", "result": "> 95", "unit": "%"}, {"measurement": "Cell infection ratio", "setting": "HIV; Table 4, final concentration 1 μg/ml", "result": "> 95", "unit": "%"}, {"measurement": "Cell infection ratio", "setting": "HIV; Table 4, final concentration 3 μg/ml", "result": "> 95", "unit": "%"}, {"measurement": "Cell infection ratio", "setting": "HIV; Table 4, final concentration 10 μg/ml", "result": 80, "unit": "%"}, {"measurement": "Cell infection ratio", "setting": "HIV; Table 4, final concentration 30 μg/ml", "result": 30, "unit": "%"}, {"measurement": "Cell infection ratio", "setting": "HIV; Table 4, final concentration 100 μg/ml", "result": "< 5", "unit": "%"}, {"measurement": "Toxicity", "setting": "MT-4 cell; final concentration 0.1 μg/ml", "result": "--"}, {"measurement": "Toxicity", "setting": "MT-4 cell; final concentration 0.3 μg/ml", "result": "--"}, {"measurement": "Toxicity", "setting": "MT-4 cell; final concentration 1 μg/ml", "result": "--"}, {"measurement": "Toxicity", "setting": "MT-4 cell; final concentration 3 μg/ml", "result": "--"}, {"measurement": "Toxicity", "setting": "MT-4 cell; final concentration 10 μg/ml", "result": "--"}, {"measurement": "Toxicity", "setting": "MT-4 cell; final concentration 30 μg/ml", "result": "--"}, {"measurement": "Toxicity", "setting": "MT-4 cell; final concentration 100 μg/ml", "result": "--"}]}
